Measured values as given in patent US20240376121A1, “COMPOUNDS AND USES THEREOF” (Foghorn Therapeutics Inc., priority 2021, published 2024).

Tests used:
[1] = target: T1, HiBit-BRG1 fusion protein (Homo sapiens, UniProt P51532); assay: HiBiT-BRG1 cell-based degradation assay (Nano-Glo HiBiT Lytic Detection); conditions: stable HeLa cell line expressing HiBit-BRG1 and LgBit, 24 h incubation; for Dmax: top dose 30 μM, read-out: BRG1 HiBit Degradation Maximum (%); for DC50: read-out: BRMG1 HiBit Degradation IC50
T1 construct: expressed in transfected cells
T1 sequence (P51532 whole entry, the tested form may be a part): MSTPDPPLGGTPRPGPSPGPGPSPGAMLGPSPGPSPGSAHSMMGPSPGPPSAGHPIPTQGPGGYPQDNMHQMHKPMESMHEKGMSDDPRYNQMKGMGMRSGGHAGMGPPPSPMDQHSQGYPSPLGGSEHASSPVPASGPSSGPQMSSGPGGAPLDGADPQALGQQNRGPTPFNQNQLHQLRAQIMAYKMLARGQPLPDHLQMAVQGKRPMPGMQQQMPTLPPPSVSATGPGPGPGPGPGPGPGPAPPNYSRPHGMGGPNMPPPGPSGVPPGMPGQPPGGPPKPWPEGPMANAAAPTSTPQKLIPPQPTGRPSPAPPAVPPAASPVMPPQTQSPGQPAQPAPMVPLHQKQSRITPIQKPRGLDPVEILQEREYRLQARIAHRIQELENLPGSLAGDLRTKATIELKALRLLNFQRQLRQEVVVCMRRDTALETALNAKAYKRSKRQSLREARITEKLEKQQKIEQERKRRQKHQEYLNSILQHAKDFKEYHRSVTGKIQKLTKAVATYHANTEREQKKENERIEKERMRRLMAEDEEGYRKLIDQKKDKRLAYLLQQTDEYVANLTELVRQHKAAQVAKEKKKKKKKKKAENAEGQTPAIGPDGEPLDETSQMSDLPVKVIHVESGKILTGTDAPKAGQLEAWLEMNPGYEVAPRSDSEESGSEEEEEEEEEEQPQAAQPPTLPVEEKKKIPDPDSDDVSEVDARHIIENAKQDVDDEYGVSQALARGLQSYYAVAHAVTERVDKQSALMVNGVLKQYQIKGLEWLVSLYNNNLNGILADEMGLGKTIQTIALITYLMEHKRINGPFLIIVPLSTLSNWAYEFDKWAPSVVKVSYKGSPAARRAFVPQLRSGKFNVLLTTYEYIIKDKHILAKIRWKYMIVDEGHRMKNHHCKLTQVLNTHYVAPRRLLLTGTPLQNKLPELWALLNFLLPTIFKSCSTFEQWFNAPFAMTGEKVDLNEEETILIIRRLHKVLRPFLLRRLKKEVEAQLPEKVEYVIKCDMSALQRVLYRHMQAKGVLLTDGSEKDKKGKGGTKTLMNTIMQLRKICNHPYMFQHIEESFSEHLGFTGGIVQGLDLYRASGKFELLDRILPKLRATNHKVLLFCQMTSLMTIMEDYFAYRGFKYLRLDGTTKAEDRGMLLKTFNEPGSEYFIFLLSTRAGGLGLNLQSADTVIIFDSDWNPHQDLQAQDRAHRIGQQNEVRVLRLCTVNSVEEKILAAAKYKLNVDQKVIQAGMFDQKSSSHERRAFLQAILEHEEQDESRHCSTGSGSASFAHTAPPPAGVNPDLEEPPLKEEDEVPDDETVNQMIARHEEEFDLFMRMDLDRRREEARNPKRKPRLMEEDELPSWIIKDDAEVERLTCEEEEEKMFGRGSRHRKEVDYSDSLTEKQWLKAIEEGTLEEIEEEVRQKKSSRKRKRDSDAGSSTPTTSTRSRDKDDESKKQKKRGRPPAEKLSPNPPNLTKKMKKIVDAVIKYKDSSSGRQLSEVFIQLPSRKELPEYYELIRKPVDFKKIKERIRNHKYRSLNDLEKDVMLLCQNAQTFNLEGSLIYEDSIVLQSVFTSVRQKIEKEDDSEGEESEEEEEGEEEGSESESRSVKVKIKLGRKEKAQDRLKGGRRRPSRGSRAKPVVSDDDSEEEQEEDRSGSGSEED
Summary of the method: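 HeLa cells stably expressing HiBiT-BRG1 and LgBiT treated 24 h with 10-point 3-fold dilutions (top 30 μM, duplicate). Luminescence read after Nano-Glo HiBiT lytic reagent; % degradation relative to DMSO (high control) and 2 μM reference BRM/BRG1 degrader (low control).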

HiBit-BRM fusion protein = target: T2, HiBit-BRM fusion protein (Homo sapiens, UniProt P51531); assay: HiBiT-BRM cell-based degradation assay (Nano-Glo HiBiT Lytic Detection); conditions: stable HeLa cell line expressing HiBiT-BRM, 24 h incubation; for BRM HiBit Degradation Maximum (%): top dose 30 μM; for DC50: read-out: BRM HiBit Degradation IC50
T2 construct: expressed in transfected cells
T2 sequence (P51531 whole entry, the tested form may be a part): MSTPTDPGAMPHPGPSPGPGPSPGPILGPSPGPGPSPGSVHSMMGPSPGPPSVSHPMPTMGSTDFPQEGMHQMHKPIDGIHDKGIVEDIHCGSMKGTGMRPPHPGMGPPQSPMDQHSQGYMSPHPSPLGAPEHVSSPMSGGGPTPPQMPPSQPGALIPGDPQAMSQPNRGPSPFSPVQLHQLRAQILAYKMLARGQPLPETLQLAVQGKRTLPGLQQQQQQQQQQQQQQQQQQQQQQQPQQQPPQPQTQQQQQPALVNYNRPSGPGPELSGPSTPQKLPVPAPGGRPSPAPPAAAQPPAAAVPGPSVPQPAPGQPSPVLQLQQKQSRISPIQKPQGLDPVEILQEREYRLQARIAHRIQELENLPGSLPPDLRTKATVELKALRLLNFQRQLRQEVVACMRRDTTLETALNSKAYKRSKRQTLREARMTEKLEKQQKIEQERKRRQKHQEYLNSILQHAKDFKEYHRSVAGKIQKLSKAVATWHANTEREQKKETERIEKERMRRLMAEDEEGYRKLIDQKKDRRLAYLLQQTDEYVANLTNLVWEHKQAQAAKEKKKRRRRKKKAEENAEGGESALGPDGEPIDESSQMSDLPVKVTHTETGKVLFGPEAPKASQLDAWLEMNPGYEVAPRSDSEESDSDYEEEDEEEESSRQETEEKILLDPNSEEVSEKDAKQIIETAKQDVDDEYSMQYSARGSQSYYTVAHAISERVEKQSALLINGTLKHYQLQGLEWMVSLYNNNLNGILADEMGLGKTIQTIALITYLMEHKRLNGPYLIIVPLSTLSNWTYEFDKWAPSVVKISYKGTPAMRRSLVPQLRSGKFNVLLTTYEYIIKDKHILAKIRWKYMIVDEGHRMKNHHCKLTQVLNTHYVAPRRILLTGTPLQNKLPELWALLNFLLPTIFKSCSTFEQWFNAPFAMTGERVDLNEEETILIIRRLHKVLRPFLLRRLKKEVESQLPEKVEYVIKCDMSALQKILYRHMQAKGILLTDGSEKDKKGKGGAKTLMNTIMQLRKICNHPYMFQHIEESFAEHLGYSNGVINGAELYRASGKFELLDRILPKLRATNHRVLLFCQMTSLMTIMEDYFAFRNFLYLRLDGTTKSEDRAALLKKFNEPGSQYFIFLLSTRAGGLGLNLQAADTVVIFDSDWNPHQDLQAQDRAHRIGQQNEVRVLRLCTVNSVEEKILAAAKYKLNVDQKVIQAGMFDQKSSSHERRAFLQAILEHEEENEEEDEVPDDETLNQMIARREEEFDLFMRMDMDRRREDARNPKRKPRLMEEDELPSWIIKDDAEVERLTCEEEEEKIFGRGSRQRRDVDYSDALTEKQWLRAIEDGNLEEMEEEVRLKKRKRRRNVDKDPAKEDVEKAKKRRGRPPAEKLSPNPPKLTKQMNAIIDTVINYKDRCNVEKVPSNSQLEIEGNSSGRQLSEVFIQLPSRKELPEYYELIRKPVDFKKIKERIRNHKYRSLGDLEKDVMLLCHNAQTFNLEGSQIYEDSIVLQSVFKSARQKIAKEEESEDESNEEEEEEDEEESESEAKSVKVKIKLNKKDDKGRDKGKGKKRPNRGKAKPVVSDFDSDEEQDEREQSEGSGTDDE
Summary of the method: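 HeLa cells stably expressing HiBiT-BRM were treated for 24 h with compounds (10-point 3-fold dilutions, 30 μM final top dose, in duplicate). HiBiT was detected by lytic LgBiT complementation luminescence. % degradation was normalized to DMSO (high control) and 2 μM of a reference BRM/BRG1 degrader (low control).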

With Cc1ncsc1-c1ccc([C@H](C)NC(=O)[C@@H]2C[C@@H](O)CN2C(=O)[C@@H](c2cc(C34CC(CN5CCC(c6sc7nnc(-c8ccccc8O)cc7c6C)CC5)(C3)C4)no2)C(C)C)cc1 [Compound 72, (2S,4R)-4-hydroxy-1-[(2R)-2-{3-[3-({4-[3-(2-hydroxyphenyl)-5-methylthieno[2,3-c]pyridazin-6-yl]piperidin-1-yl}methyl)bicyclo[1.1.1]pentan-1-yl]-1,2-oxazol-5-yl}-3-methylbutanoyl]-N-[(1S)-1-[4-(4-methyl-1,3-thiazol-5-yl)phenyl]ethyl]pyrrolidine-2-carboxamide] the Dmax [1] was ≥ 75%, the DC50 [1] was ≥ 10 nM and the “BRM HiBit Degradation Maximum (%)” value (HiBit-BRM fusion protein) was “A (“A” indicates maximum degradation ≥ 75%)”. For the same compound, the DC50 (HiBit-BRM fusion protein) was < 10 nM.
For Cc1ncsc1-c1ccc([C@H](C)NC(=O)[C@@H]2C[C@@H](O)CN2C(=O)[C@@H](c2cc(OCCN3CCC(O)(c4cc5nnc(-c6ccccc6O)cc5s4)CC3)no2)C(C)C)cc1 [Compound 73, (2S,4R)-4-hydroxy-1-((R)-2-(3-(2-(4-hydroxy-4-(3-(2-hydroxyphenyl)thieno[3,2-c]pyridazin-6-yl)piperidin-1-yl)ethoxy)isoxazol-5-yl)-3-methylbutanoyl)-N-((S)-1-(4-(4-methylthiazol-5-yl)phenyl)ethyl)pyrrolidine-2-carboxamide], the Dmax [1] was < 50%, the DC50 [1] was ≥ 1000 nM and the “BRM HiBit Degradation Maximum (%)” value (HiBit-BRM fusion protein) was “A (“A” indicates maximum degradation ≥ 75%)”. The DC50 (HiBit-BRM fusion protein) was ≥ 10 nM.
For Cc1ncsc1-c1ccc([C@H](C)NC(=O)[C@@H]2C[C@@H](O)CN2C(=O)[C@@H](c2cc(OCCN3C[C@H]4C[C@@H](C3)[C@H]4c3cc4cc(-c5ccccc5O)nnc4s3)no2)C(C)C)cc1 [Compound 74, (2S,4R)-4-hydroxy-1-((R)-2-(3-(2-((1R,5S,6S)-6-(3-(2-hydroxyphenyl)thieno[2,3-c]pyridazin-6-yl)-3-azabicyclo[3.1.1]heptan-3-yl)ethoxy)isoxazol-5-yl)-3-methylbutanoyl)-N-((S)-1-(4-(4-methylthiazol-5-yl)phenyl)ethyl)pyrrolidine-2-carboxamide], the Dmax [1] was < 50%, the DC50 [1] was ≥ 1000 nM and the “BRM HiBit Degradation Maximum (%)” value (HiBit-BRM fusion protein) was “C (“C” indicates maximum degradation < 50%)”. For the same compound, the DC50 (HiBit-BRM fusion protein) was ≥ 1000 nM.
Cc1ncsc1-c1ccc(CNC(=O)[C@@H]2C[C@@H](O)CN2C(=O)[C@@H](NC(=O)C2(F)CC2)C(C)(C)C)c(OCC(=O)N2CCC(c3cc4nnc(-c5ccccc5O)cc4s3)CC2)c1 [Compound 75, (2S,4R)-1-((S)-2-(1-fluorocyclopropane-1-carboxamido)-3,3-dimethylbutanoyl)-4-hydroxy-N-(2-(2-(4-(3-(2-hydroxyphenyl)thieno[3,2-c]pyridazin-6-yl)piperidin-1-yl)-2-oxoethoxy)-4-(4-methylthiazol-5-yl)benzyl)pyrrolidine-2-carboxamide] was tested, and the Dmax [1] was < 50%, the DC50 [1] was ≥ 1000 nM and the “BRM HiBit Degradation Maximum (%)” value (HiBit-BRM fusion protein) was “C (“C” indicates maximum degradation < 50%)”. For the same compound, the DC50 (HiBit-BRM fusion protein) was ≥ 1000 nM.
For Cc1ncsc1-c1ccc(CNC(=O)[C@@H]2C[C@@H](O)CN2C(=O)[C@@H](NC(=O)C2(F)CC2)C(C)(C)C)c(OCCCN2CCC(c3cc4nnc(-c5ccccc5O)cc4s3)CC2)c1 [Compound 76, (2S,4R)-1-((S)-2-(1-fluorocyclopropane-1-carboxamido)-3,3-dimethylbutanoyl)-4-hydroxy-N-(2-(3-(4-(3-(2-hydroxyphenyl)thieno[3,2-c]pyridazin-6-yl)piperidin-1-yl)propoxy)-4-(4-methylthiazol-5-yl)benzyl)pyrrolidine-2-carboxamide], the Dmax [1] was < 50%, the DC50 [1] was ≥ 100 nM and the “BRM HiBit Degradation Maximum (%)” value (HiBit-BRM fusion protein) was “B (“B” indicates maximum degradation ≥ 50%)”. For the same compound, the DC50 (HiBit-BRM fusion protein) was ≥ 10 nM.
